According to patent US7741436B2, “Biologically active peptides and their use for repairing injured nerves” (priority 2001, dated 2010):

Assays:
Assay type in all cases: cell-based
[1] = test system: rat cerebellar granule neurons; assay: Electrophysiology: voltage-clamped whole-cell patch recordings of currents induced by laminin-1-derived peptides and fusion proteins; settings: whole-cell patch clamp, neurons on laminin-1 substratum
Excerpt: Sixteen-day pregnant Sprague-Dawley female rats were obtained from Taconic Farms, and maintained at the animal facility of National Institute of Alcohol Abuse and Alcoholism (NTH), fed with NTH-31 diet, containing 20,000 IU/kg vitamin A after autoclaving. The rats were allowed to give birth, and cerebellar tissues of 3-day-old female pups were aseptically isolated as described previously (Matsuzawa et al., 1996a). A suspension of single cells was obtained by trypsinizing the cerebella as described elsewhere (Liesi and Wright, 1996), after which 10^5 cells were plated on 22 mm glass coverslip pre-coated with laminin-1. The cells were incubated in an atmosphere of 95% air/5% CO2 at +37° C. in RPMI 1640 culture medium supplemented with penicillin and streptomycin and 200 μM L-glutamine. After 24 hrs, the cells were used for electrophysiology.
Recordings were done at room temperature using a List EPC-7 patch-clamp amplifier in voltage-clamped whole-cell patch configuration as described previously (Liesi and Wright, 1996). Pipettes were pulled from borosilicate glass and lightly fire polished. Experiments were performed at room temperature. Whole-cell currents were recorded on a Gould 2400S strip chart recorder. Cell membrane potential was clamped at −40 mV unless otherwise noted. All bath solutions were applied through pinch-valves that controlled the flow from multiple reservoirs to a single 200 μm ID barrel of fused silica. Standard bath solution was RPMI 1640, buffered with 10 mM HEPES (pH 7.4). The standard pipette solution contained (in mM): CsMeSO4 100, CsCl 15, BAPTA 5, HEPES 10 (pH KOH-adjusted to 7.2). Tests for reversal potentials were conducted in low K^+ bath solution containing (in mM): NaCl 150, KCl 5, CaCl2 1, HEPES 10 (pH adjusted to 7.2 with NaOH) and a high K^+ bath solution, containing (in mM): NaCl 115, KCl 40, CaCl2 1, HEPES 10 (pH adjusted to 7.2 with NaOH). All bath solutions contained 300 nM TTX. […] Nernst reversal potentials were calculated according to Hille (1992). […]

[2] = test system: human embryonic neocortical neurons; assay: Survival of human embryonic neocortical neurons on injured glial cells of the human spinal cord; settings: 1 μg/ml soluble peptide, 72 hrs, vs lesion control
Excerpt: The CNS tissues were first placed in cold saline. The spinal cord tissues were identified under a stereomicroscope, and carefully freed of meninges. To obtain monolayer cultures of human spinal cord glial cells, the cells were dissociated by mechanical trituration using a Pasteur-pipette, and placed in Petri dishes (Corning, N.Y., USA) containing 10% fetal calf serum (Hyclone, Logan, UH) in DMEM-F12 (Gibco, U.K.) supplemented with penicillin and streptomycin as described (Liesi et al. 2001).
Human embryonic spinal cord glial cells were cultured till confluency in 10% fetal bovine serum as described (Liesi et al., 2001). The confluent cultures were trypsinized and cells replated at 100 000 cells/22 mm glass coverslip, and grown till confluency. The confluent cultures were changed into normal adult human serum, and injured by using a 18 G gauge sterile needle. The KDI peptide was added at 1 μg/ml (3 μM) and at 10 μg/ml (30 μM) concentration and the P1543 peptide (p20) was added at a concentration of 1 μM, and 50-100 000 freshly isolated human embryonic neocortical neurons were added on the glial cells. The control cultures had neurons added either without the peptide or the lesion. The cells were cultured for 72 hrs in 5% CO2/95% air at +37° C., and fixed for quantitation of neurons and measurement of their neuritic lengths. The neurons on glial monolayers were visualized by immunostaining using mouse monoclonal antibodies against a neuron-specific tubulin isoform (TUJ1). The results were evaluated by counting neurons in six random fields on 3 different coverslip per experiment. In this way, more than 300 neurons were counted per experiment. Statistical analysis of the results was performed using one-way analysis of Varians (ANOVA) and Student-Newman-Keuls multiple comparisons test on the Instat (v2.03) program (GraphPad, San Diego, Calif.).

human CNS neurons = assay: Attachment and neurite outgrowth of human embryonic CNS neurons on synthetic peptides coupled to glass; settings: 1 μg/ml, peptide coupled to glass, 24 hrs
Experimental: The cells were dissociated by trituration in a sterile culture medium (RPMI 1640) containing penicillin (100 U/ml), streptomycin (100 μg/ml) and 200 μM L-glutamine. The dissociated cells were plated on glass coverslips pre-coated (Liesi et al., 1989) with mouse laminin-1 (Boehringer-Mannheim, Germany) or with the peptides KDI-gc and RDIAEIIKDI-gc (SEQ ID NO: 1), as described elsewhere (Matsuzawa et al., 1996b). The peptides were from the Multiple Peptide Systems (La Jolla, Calif.). The cultures were maintained for 24 hrs, fixed in 2% paraformaldehyde, and processed for immunocytochemistry.
Immunocytochemistry for neuron specific tubulin isoform TUJ1 was performed as described elsewhere (Liesi et al., 2001). In short, the cells were permeabilized in methanol for 5 min at −20° C., washed in PBS and incubated with monoclonal TUJ1-antibodies for 1 hr at room temperature. The antibody was of high specificity and was used at 1:500 dilution. After immunocytochemistry, the coverslips were mounted in PBS:glycerol (1:1) and viewed with Olympus Provis fluorescence microscope with appropriate filter combinations.

| Substance | induction of currents in cerebellar granule neurons [1] | attachment and neurite outgrowth of neocortical neurons on lesioned spinal cord glial cells [2] | attachment and neurite outgrowth of human CNS neurons (human CNS neurons) |
| --- | --- | --- | --- |
| EIIKDI [6-amino acid peptide truncated from P1543] | induced currents |  |  |
| RDIAEIIKDI [P1543, C-terminal neurite outgrowth decapeptide of the γ1-chain of laminin-1] | induced electrical currents | significant (p<0.001) improvement | supported attachment and neurite outgrowth |
